Source: PMC9150102 (Journal of Medicinal Chemistry, 2022)

Assays:
SERCA2a [1] = molecular target: T1, SERCA2a (Cavia porcellus, UniProt A0A286XFU8); assay: SERCA2a ATPase activity, Ca2+ dependency in cardiac SR microsomes from healthy guinea pigs; format: biochemical, guinea pig; settings: for SERCA2a KdCa reduced by / SERCA2a Vmax: 1 nM
T1 construct: from tissue; host or cells: guinea pig left ventricle, SR-enriched microsomes
Description: SERCA2a ATPase activity was assessed in SR preparations from healthy guinea pig hearts. Ca^2+ dependency of ATPase activity was measured, and kinetic parameters (KdCa and Vmax) were estimated at compound concentrations of 10 and 100 nM.
[…] […] Data are the mean ± SEM. *p < 0.05 (one-way RM ANOVA plus post hoc Tukey’s multiple comparisons or paired t-test).
(§1) Measurements were performed in cardiac SR microsomes (guinea pig) and in whole tissue homogenates (rat). Cardiac preparations included SERCA2a and PLN. To test for PLN involvement in the effect of compounds, SERCA1 activity was measured in PLN-free microsomes (from guinea pig skeletal muscle) before and after reconstitution with the synthetic PLN1–32 inhibitory fragment at a ratio of 300:1 for PLN/SERCA. […] Either an increase in Vmax (rat) or a decrease in KdCa (increased Ca^2+ affinity) (guinea pig) stands for enhancement of SERCA function. […]
(§2) Left ventricles (LV) were dissected from rat and guinea -pig of healthy and failing preparations and frozen until use. Tissues were homogenized, subjected to centrifugation to obtain SR -enriched microsomes and sarcomeric proteins were extracted, as previously described 4.
(§3) In the case of guinea-pig hearts, LV tissues were homogenized in 4 volumes of 10 mM NaHCO3, 1 mM PMSF, 10 μg/ml aprotinin and leupeptin (pH 7) and centrifuged at 12,000g for 15 minutes. Supernatants were filtered and centrifuged at 100,000 g for 30 min. Contractile proteins were extracted by suspending the pellets with 0.6 M KCl, 30 mM histidine, pH 7 and further centrifugation at 100,000 g for 30 min.
(§4) Final pellets were reconstituted with 0.3 M sucrose, 30 mM histidine, pH 7, to obtain SR-enriched […]
(§5) SERCA2a ATPase activity was measured as the rate of 32P-ATP release at multiple Ca2+ concentrations (100-2000 nM) in the absence and presence of tested compounds, as previously described5. Increasing concentrations of each compound were pre-incubated with 2 μg of cardiac preparations for 5 min at 4° C in 80 μl of a solution containing 100 mM KCl, 5 mM MgCl2, 1 μM A23187, 20 mM Tris, pH 7.5. Then, 20 μl of 5 mM Tris-ATP containing 50 nCi of 32P-ATP (3-10 Ci/mmol, Perkin Elmer) were added. The ATP hydrolysis was continued for 15 min at 37°C and the reaction was stopped by acidification with 100 μl of 20% ice-cold perchloric acid. 32P was separated by centrifugation with activated charcoal (Norit A, Serva) and the radioactivity was measured. SERCA2a-dependent ATPase activity was identified as the portion of total hydrolytic activity inhibited by cyclopiazonic acid (CPA, 10 µM). Technical replicates were used to ensure the reliability of single values. […]

SERCA2a [2] = molecular target: T2, SERCA2a (Rattus norvegicus, UniProt P11507); assay: SERCA2a ATPase activity in cardiac homogenates from diabetic (STZ) rats; format: biochemical
T2 construct: tissues from healthy and STZ rats were homogenized; from tissue; host or cells: Sprague Dawley rat left ventricle homogenates (healthy or STZ-diabetic)
T2 sequence (P11507 1-997 isoform P11507-2): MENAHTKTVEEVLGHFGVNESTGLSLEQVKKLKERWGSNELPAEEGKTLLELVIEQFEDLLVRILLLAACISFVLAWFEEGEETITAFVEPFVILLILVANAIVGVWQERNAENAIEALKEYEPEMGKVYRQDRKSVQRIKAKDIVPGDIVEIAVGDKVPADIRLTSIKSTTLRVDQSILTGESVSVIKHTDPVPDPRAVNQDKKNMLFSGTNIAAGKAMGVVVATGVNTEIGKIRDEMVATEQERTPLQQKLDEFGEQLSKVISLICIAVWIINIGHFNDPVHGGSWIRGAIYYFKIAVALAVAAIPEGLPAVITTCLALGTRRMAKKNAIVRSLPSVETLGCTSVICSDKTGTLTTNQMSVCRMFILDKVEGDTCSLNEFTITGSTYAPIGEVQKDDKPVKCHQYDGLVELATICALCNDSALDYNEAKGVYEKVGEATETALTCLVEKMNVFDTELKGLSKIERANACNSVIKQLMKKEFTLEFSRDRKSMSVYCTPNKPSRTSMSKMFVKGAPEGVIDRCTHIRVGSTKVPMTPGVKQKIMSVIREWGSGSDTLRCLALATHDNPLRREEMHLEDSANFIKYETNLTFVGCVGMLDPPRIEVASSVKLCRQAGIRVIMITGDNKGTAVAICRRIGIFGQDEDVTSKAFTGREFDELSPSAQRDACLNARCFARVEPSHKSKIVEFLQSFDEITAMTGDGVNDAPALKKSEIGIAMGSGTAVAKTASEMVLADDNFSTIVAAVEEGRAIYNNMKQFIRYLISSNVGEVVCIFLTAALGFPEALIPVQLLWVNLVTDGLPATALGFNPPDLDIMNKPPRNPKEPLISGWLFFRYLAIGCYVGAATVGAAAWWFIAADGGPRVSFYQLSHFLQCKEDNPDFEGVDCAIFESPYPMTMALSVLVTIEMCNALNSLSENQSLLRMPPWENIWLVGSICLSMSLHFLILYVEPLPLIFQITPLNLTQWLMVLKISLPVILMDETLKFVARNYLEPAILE
Description: Measurements were performed in cardiac SR microsomes (guinea pig) and in whole tissue homogenates (rat). Cardiac preparations included SERCA2a and PLN. To test for PLN involvement in the effect of compounds, SERCA1 activity was measured in PLN-free microsomes (from guinea pig skeletal muscle) before and after reconstitution with the synthetic PLN1–32 inhibitory fragment at a ratio of 300:1 for PLN/SERCA. […] Either an increase in Vmax (rat) or a decrease in KdCa (increased Ca^2+ affinity) (guinea pig) stands for enhancement of SERCA function.
(rats). As verified by Western blot, cardiac microsomes preparations included SERCA2a and PLN and skeletal muscle ones included SERCA1 only.
SERCA stimulation4, compounds were also tested on SERCA1 in microsomes of guinea-pig skeletal muscle (PLN-free) before and after reconstitution with the PLN1-32 inhibitory fragment at a ratio of 300:1 […]
as §2, §3, §4
(§6) In the case of rat hearts, cardiac homogenates were used to have sufficient material to replicate the experiments within a single animal. Hearts were excised from rats eight weeks after STZ injection. LV tissues from healthy and STZ rats were homogenized (1 g in 4 ml buffer) in a medium containing 300 mM sucrose, 50 mM K-phosphate, 10 mM NaF, 0.3 mM PMSF, 0.5 mM DTT, pH 7, and centrifuged at 35,000 g for 30 min. The final pellet was resuspended in the same buffer.
SERCA2a ATPase activity was measured as the rate of 32P-ATP release at multiple Ca2+ concentrations (100-2000 nM) in the absence and presence of tested compounds, as previously described5. Increasing concentrations of each compound were pre-incubated with 2 μg of cardiac preparations for 5 min at 4° C in 80 μl of a solution containing 100 mM KCl, 5 mM MgCl2, 1 μM A23187, 20 mM Tris, pH 7.5. Then, 20 μl of 5 mM Tris-ATP containing 50 nCi of 32P-ATP (3-10 Ci/mmol, Perkin Elmer) were added. […] 32P was separated by centrifugation with activated charcoal (Norit A, Serva) and the radioactivity was measured. […]

SERCA2a [3] = molecular target: T2, SERCA2a; assay: SERCA2a ATPase activity in cardiac SR homogenates from healthy rats; format: biochemical
Description: as §1
Left ventricles (LV) were dissected from rat and guinea -pig of healthy and failing preparations and frozen until use. Tissues were homogenized, subjected to centrifugation to obtain SR -enriched microsomes and sarcomeric proteins were extracted, as previously described 4. […]
as §6, §5

T1 sequence (A0A286XFU8 entry or part of it): as the sequence (P11507 1-997 isoform P11507-2) above, with A219V, I392M, Q396H, V402I, A470V, P535L, S713A, I889V counted along it

Compound	SERCA2a KdCa reduced by (SERCA2a [1])	SERCA2a Vmax (SERCA2a [1])	SERCA2a Stimulation @100 nM (DELTA% KdCa) (SERCA2a [1]; 100 nM)	SERCA2a Vmax increase (SERCA2a [2]; 300 nM)	SERCA2a Vmax increase (SERCA2a [2]; 500 nM)	SERCA2a KdCa (SERCA2a [3]; Cpd 100 nM)	SERCA2a Vmax (µmol/min/mg) (SERCA2a [3]; Cpd 100 nM)	SERCA2a KdCa (SERCA2a [3]; Cpd 300 nM)	SERCA2a Vmax (µmol/min/mg) (SERCA2a [3]; Cpd 300 nM)	SERCA2a KdCa (SERCA2a [3]; Cpd 500 nM)	SERCA2a Vmax (µmol/min/mg) (SERCA2a [3]; Cpd 500 nM)	SERCA2a KdCa (SERCA2a [3]; Cpd 1000 nM)	SERCA2a Vmax (µmol/min/mg) (SERCA2a [3]; Cpd 1000 nM)
C[C@]12CC[C@H](CCCC(=O)O)C[C@@H]1[C@@H](O)C[C@@H]1[C@@H]2CC[C@]2(C)C(=O)CC[C@@H]12 [Compound 5]	16%	without affecting Vmax	-21%	+26%	+25%	221 ± 24 nM	0,371 ± 0,021 µmol/min/mg	221 ± 21 nM	0,384 ± 0,023 µmol/min/mg	220 ± 24 nM	0,374 ± 0,031 µmol/min/mg	219 ± 32 nM	0,377 ± 0,029 µmol/min/mg
C[C@]12CC[C@H](CC(=O)O)C[C@@H]1[C@@H](O)C[C@@H]1[C@@H]2CC[C@]2(C)C(=O)CC[C@@H]12 [Compound 8]	14%	without affecting Vmax		+17%	+28%	214 ± 17 nM	0,344 ± 0,038 µmol/min/mg	210 ± 13 nM	0,366 ± 0,027 µmol/min/mg	260 ± 35 nM	0,313 ± 0,028 µmol/min/mg	273 ± 32 nM	0,320 ± 0,020 µmol/min/mg
